The subject of this experiment is HA-TDP expressing cells. In words: Suppression of insoluble TDP aggregate formation by candidate compounds (Western blot with anti-409/410 antibody, densitometer). Format: cell-based, human. Particulars: 20 μM, ppt fraction after three days, compared with DMSO control as 100%; for suppressing effect against aggregate formation: added 6 hours after introduction of insoluble fraction from the brain of patient. As for the experimental part: Two transfectants of (1) SH-SY5Y cells expressing human α-synuclein (hereinafter referred to as “αS expressing cells” for transfectants and “αS” for the human α-synuclein, respectively) and (2) SH-SY5Y cells expressing HA-tagged TAR DNA binding protein (hereinafter referred to as “HA-TDP expressing cells” for the SH-SY5Y cells and an “HA-TDP” HA-tagged TAR DNA binding protein, respectively) were prepared. In brief, a construct in which a polynucleotide encoding αS or HA-TDP was inserted into pcDNA3 vector were prepared (Ueda. K et al., Proc. Natl. Acad. Sci. U.S.A. 90: 11282 (1993), Ou. S H et al., J Virol. 3584: 394 (1995)). Mixture of the construct (1 μg), X-tremeGENE 9 DNA transfection reagent (Roche Diagnostics K.K.) (3 μL) and the OptiMEM (100 μL) was added to 30% to 50% confluent of the SH-SY5Y cells and incubated over night, then used in the following step of introduction of insoluble fraction.
An amount of sample for introduction per one well of the 6-well plate was added to the cell culture medium of one well, then the cultured cells was incubated for 6 hours. After the incubation, the medium was replaced with a flesh cell culture medium (2 mL) and the cultured cells were incubated for 3 days. Then, the cultured cells were used to perform the analysis by Western blotting and immunocytochemistry. If the cultured cells were not used immediately, the cultured cells were stored at −20° C.
The precipitate obtained in the preparation of TX fraction was suspended in a cell lysis buffer containing 1% N-sodium lauroyl sarcosinate, and incubated at 37° C. for 30 min. After ultrasonication treatment using VP-5S type device (Titech Corporation), the supernatant and precipitate were separated by ultracentrifugation (290,000×g, 20 min, 4° C.), the supernatant was used as Tris buffer soluble fraction containing N-sodium lauroyl sarcosinate (hereinafter referred to as “Sar fraction”). And also, the precipitate was used as insoluble fraction (hereinafter referred to as “ppt fraction”).
TS, TX, Sar and ppt fractions were used in the Western blotting by standard method well known to those skilled in the art. In brief, each fraction was separated by electrophoresis with 13.5% SDS-polyacrylamide gel, respectively. The separated proteins were transferred to a PVDF membrane, reacted with the following primary and secondary antibodies, and detected with an ECL Plus Western Blotting Detection System (GE Healthcare Japan Corporation) and an ImageQuant™ LAS 4000 mini (GE Healthcare Japan Corporation).
The harvest of samples, preparation of insoluble fractions from the brain samples, preparation of sample for introduction including the insoluble fractions, cell culturing, preparation of transfectants, introduction of insoluble fractions into the cultured cells and Western blotting were performed in accordance with the procedures similar to those in the example 3. In this example, the candidate compounds of therapeutic agent of neurodegenerative disease were added at final concentration of 20 μM at 6 hours after introduction of insoluble fraction originated from the brain of patient into HA-TDP expressing cells. […] In three days after the introduction of insoluble fraction from the brain of patient, the ppt fraction of HA-TDP expressing cells was recovered and used in Western blotting, and the amounts of the insoluble fractions were quantified with a densitometer. […]

As for `O=C(c1cc(O)c(O)c(O)c1)c1ccc(O)c(O)c1O` [exifone], the “suppressing effect against aggregate formation” value (from here on “suppressing effect”) was “did not have a suppressing effect”. Take `O=c1c(O)c(-c2ccc(O)c(O)c2)oc2c(O)c(O)cc(O)c12` [gossypetin]: the “suppressing effect” value is reported as “had the suppressing effect” and the aggregate formation suppressed entry is listed as “approximately 40%”.

As to `O=c1c(O)c(-c2cc(O)c(O)c(O)c2)oc2cc(O)cc(O)c12` [myricetin], the “suppressing effect” value is given as “had the suppressing effect”.

In the case of `O=C(O[C@@H]1Cc2c(O)cc(O)cc2O[C@@H]1c1ccc(O)c(O)c1)c1cc(O)c(O)c(O)c1` [epicatechin gallate, (−)-epicatechin gallate], the “suppressing effect” value is “had the suppressing effect”.
